Results as given in US8541407B2 (ArQule, Inc., priority 2010, dated 2013).
Where a name gives a salt, the structure may show the parent alone.

Tests used:
A2780 = assay: MTS Assay, cell proliferation analysis (A2780); assay type: cell-based; conditions: Homo sapiens; A2780 cells; 72 hours; 10 Percent FBS
Method: (§1) Cell proliferation analysis. Cell survival was determined by the MTS assay. Briefly, cells were plated in a 96-well plate at 2,000-10,000 cells per well, cultured for 24 hours in complete growth medium, and then treated with representative compounds of the invention or combinations thereof for 72 hours. MTS was added and incubated for 4 hours, followed by assessment of cell viability by using the microplate reader at 570 nm. Data were normalized to untreated controls and analyzed.

AN3-CA = assay: MTS Assay, cell proliferation analysis (AN3-CA); assay type: cell-based; conditions: Homo sapiens; AN3-CA cells; 72 hours; 10 Percent FBS
Method: as §1

AKT1 = AKT1 (Homo sapiens (Human), UniProt P31749); assay: Inactive Akt Alpha Screen Assay; conditions: non *labeled: Akt Alpha Screen assay; read-out: AKT1 biochemical assay, IC50
Method in brief: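 AKT1 activated in situ by PDK1, MAPKAPK2, lipid vesicles and ATP, then phosphorylating biotinylated crosstide for 30 min at room temperature. Stopped with 10 mM EDTA; phosphopeptide detected by AlphaScreen using phospho-AKT substrate antibody (1:350), Protein A acceptor and streptavidin donor beads, 90 min dark, ex 640/em 570 nm.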

Chain of AKT1 (P31749 whole entry): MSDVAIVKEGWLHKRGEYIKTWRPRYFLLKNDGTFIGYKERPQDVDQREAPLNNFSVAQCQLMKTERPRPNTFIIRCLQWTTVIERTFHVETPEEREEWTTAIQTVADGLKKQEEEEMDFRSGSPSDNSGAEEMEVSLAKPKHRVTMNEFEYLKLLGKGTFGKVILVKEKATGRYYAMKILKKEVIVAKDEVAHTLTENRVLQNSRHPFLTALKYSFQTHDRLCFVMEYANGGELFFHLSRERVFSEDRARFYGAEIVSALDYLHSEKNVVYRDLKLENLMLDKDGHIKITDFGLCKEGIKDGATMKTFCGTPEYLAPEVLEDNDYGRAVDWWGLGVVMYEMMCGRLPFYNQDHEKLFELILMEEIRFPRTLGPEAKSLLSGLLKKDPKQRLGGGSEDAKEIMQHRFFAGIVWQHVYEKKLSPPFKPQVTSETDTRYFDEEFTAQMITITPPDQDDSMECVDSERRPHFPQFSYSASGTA

Compound	IC50 (A2780) [µM]	IC50 (AKT1) [µM]	IC50 (AN3-CA) [µM]
O=C(Nc1ccc(-c2nnc3n2-c2cccnc2Nc2ccccc2-3)cc1)c1ccccc1 [Example 59, N-(4-(9H-benzo[f]pyrido[2,3-b][1,2,4]triazolo[4,3-d][1,4]diazepin-3-yl)phenyl)benzamide]	32	0.07	28
O=C(NCCc1ccc(-c2nnc3n2-c2cccnc2Nc2ccccc2-3)cc1)Nc1ccccc1 [Example 110, 1-(4-(9H-benzo[f]pyrido[2,3-b][1,2,4]triazolo[4,3-d][1,4]diazepin-3-yl)phenethyl)-3-phenylurea]	6	0.12	8
O=S(=O)(NCc1ccc(-c2nnc3n2-c2cccnc2Nc2ccccc2-3)cc1)c1cccc(Cl)c1 [Example 116, N-(4-(9H-benzo[f]pyrido[2,3-b][1,2,4]triazolo[4,3-d][1,4]diazepin-3-yl)benzyl)-3-chlorobenzenesulfonamide]	21	0.15	23
O=S(=O)(NCc1ccc(-c2nnc3n2-c2cccnc2Nc2ccccc2-3)cc1)c1ccc(F)cc1 [Example 117, N-(4-(9H-benzo[f]pyrido[2,3-b][1,2,4]triazolo[4,3-d][1,4]diazepin-3-yl)benzyl)-4-fluorobenzenesulfonamide]	19	0.12	37
Cc1ccc(S(=O)(=O)NCc2ccc(-c3nnc4n3-c3cccnc3Nc3ccccc3-4)cc2)cc1 [Example 118, N-(4-(9H-benzo[f]pyrido[2,3-b][1,2,4]triazolo[4,3-d][1,4]diazepin-3-yl)benzyl)-4-methylbenzenesulfonamide]	14	0.11	28
COc1cccc(NC(=O)NCc2ccc(-c3nnc4n3-c3cccnc3Nc3ccccc3-4)cc2)c1 [Example 123, 1-(4-(9H-benzo[f]pyrido[2,3-b][1,2,4]triazolo[4,3-d][1,4]diazepin-3-yl)benzyl)-3-(3-methoxyphenyl)urea]	27	0.13	48
O=S(=O)(NC1CCN(Cc2ccc(-c3nnc4n3-c3cccnc3Nc3ccccc3-4)cc2)CC1)c1ccc2c(c1)OCCO2 [Example 156, N-(1-(4-(9H-benzo[f]pyrido[2,3-b][1,2,4]triazolo[4,3-d][1,4]diazepin-3-yl)benzyl)piperidin-4-yl)-2,3-dihydrobenzo[b][1,4]dioxine-6-sulfonamide]	15	2	20
O=C(Nc1cccc(C(F)(F)F)c1)NC1CCN(Cc2ccc(-c3nnc4n3-c3cccnc3Nc3ccccc3-4)cc2)CC1 [Example 174, 1-(1-(4-(9H-benzo[f]pyrido[2,3-b][1,2,4]triazolo[4,3-d][1,4]diazepin-3-yl)benzyl)piperidin-4-yl)-3-(3-(trifluoromethyl)phenyl)urea]	8	0.63	13
c1ccc(-n2cc(COCc3ccc(-c4nnc5n4-c4cccnc4Nc4ccccc4-5)cc3)nn2)cc1 [Example 186, 3-(4-(((1-phenyl-1H-1,2,3-triazol-4-yl)methoxy)methyl)phenyl)-9H-benzo[f]pyrido[2,3-b][1,2,4]triazolo[4,3-d][1,4]diazepine]	3	0.49	4
c1ccc2c(c1)Nc1ncccc1-n1c(-c3ccc(CN4CCC(c5c[nH]c6ccccc56)CC4)cc3)nnc1-2 [Example 187, 3-(4-((4-(1H-indol-3-yl)piperidin-1-yl)methyl)phenyl)-9H-benzo[f]pyrido[2,3-b][1,2,4]triazolo[4,3-d][1,4]diazepine]	6	0.5	8
O=C(NC1(c2ccc(-c3nnc4n3-c3cccnc3Nc3ccccc3-4)cc2)CCC1)c1ccccc1 [Example 193, N-(1-(4-(9H-benzo[f]pyrido[2,3-b][1,2,4]triazolo[4,3-d][1,4]diazepin-3-yl)phenyl)cyclobutyl)benzamide]	12	0.073	22
Fc1ccc2c(CCNCc3ccc(-c4nnc5n4-c4cccnc4Nc4ccccc4-5)cc3)c[nH]c2c1 [Example 202, N-(4-(9H-benzo[f]pyrido[2,3-b][1,2,4]triazolo[4,3-d][1,4]diazepin-3-yl)benzyl)-2-(6-fluoro-1H-indol-3-yl)ethanamine]	4	0.21	15
Clc1ccc2nc(CCNCc3ccc(-c4nnc5n4-c4cccnc4Nc4ccccc4-5)cc3)[nH]c2c1 [Example 203, N-(4-(9H-benzo[f]pyrido[2,3-b][1,2,4]triazolo[4,3-d][1,4]diazepin-3-yl)benzyl)-2-(6-chloro-1H-benzo[d]imidazol-2-yl)ethanamine]	10	0.15	13
NC1(c2ccc(-c3nnc4n3-c3cccnc3Nc3ccc(-c5ccccc5)cc3-4)cc2)CCC1 [Example 224, 1-(4-(12-phenyl-9H-benzo[f]pyrido[2,3-b][1,2,4]triazolo[4,3-d][1,4]diazepin-3-yl)phenyl)cyclobutanamine]		1.2	
NCc1ccc(-c2nnc3n2-c2cccnc2Nc2ccc(Br)cc2-3)cc1 [Example 227, (4-(12-bromo-9H-benzo[f]pyrido[2,3-b][1,2,4]triazolo[4,3-d][1,4]diazepin-3-yl)phenyl)methanamine]		6.1	
c1ccc(CCNC2(c3ccc(-c4nnc5n4-c4cccnc4Nc4ccccc4-5)cc3)CCC2)cc1 [Example 229, 1-(4-(9H-benzo[f]pyrido[2,3-b][1,2,4]triazolo[4,3-d][1,4]diazepin-3-yl)phenyl)-N-phenethylcyclobutanamine]		3.8	
Fc1ccc(-c2nnc3n2-c2cccnc2Nc2ccccc2-3)cc1 [hydrochloride]		23	
c1ccc2c(c1)Nc1ncccc1-n1c(-c3ccc4ccccc4c3)nnc1-2 [hydrochloride]		29	

The remaining compounds from weak to strong by IC50 (AKT1), led by results:

IC50 (A2780) [µM]	IC50 (AKT1) [µM]	Compound	IC50 (AN3-CA) [µM]
	9.3	O=C(NC1(c2ccc(-c3nnc4n3-c3ccc(Cl)nc3Nc3ccccc3-4)cc2)CCC1)C(F)(F)F [Example 226, N-(1-(4-(7-chloro-9H-benzo[f]pyrido[2,3-b][1,2,4]triazolo[4,3-d][1,4]diazepin-3-yl)phenyl)cyclobutyl)-2,2,2-trifluoroacetamide]	
	5.2	OCc1ccc(-c2nnc3n2-c2cccnc2Nc2ccc(Br)cc2-3)cc1 [Example 225, (4-(12-bromo-9H-benzo[f]pyrido[2,3-b][1,2,4]triazolo[4,3-d][1,4]diazepin-3-yl)phenyl)methanol]	
	2.6	NC1(c2ccc(-c3nnc4n3-c3cc(-c5ccccc5)cnc3Nc3ccccc3-4)cc2)CCC1 [Example 230, 1-(4-(6-phenyl-9H-benzo[f]pyrido[2,3-b][1,2,4]triazolo[4,3-d][1,4]diazepin-3-yl)phenyl)cyclobutanamine]	
10	0.75	O=C(NCCc1cccs1)NC1CCN(Cc2ccc(-c3nnc4n3-c3cccnc3Nc3ccccc3-4)cc2)CC1 [Example 182, 1-(1-(4-(9H-benzo[f]pyrido[2,3-b][1,2,4]triazolo[4,3-d][1,4]diazepin-3-yl)benzyl)piperidin-4-yl)-3-(2-(thiophen-2-yl)ethyl)urea]	28
	0.49	Cc1ccc2c(c1)Nc1ncccc1-n1c(-c3ccc(C4(N)CCC4)cc3)nnc1-2 [Example 223, 1-(4-(11-methyl-9H-benzo[f]pyrido[2,3-b][1,2,4]triazolo[4,3-d][1,4]diazepin-3-yl)phenyl)cyclobutanamine]	
15	0.44	Cc1ccc(NC(=O)NC2CCN(Cc3ccc(-c4nnc5n4-c4cccnc4Nc4ccccc4-5)cc3)CC2)cc1 [Example 168, 1-(1-(4-(9H-benzo[f]pyrido[2,3-b][1,2,4]triazolo[4,3-d][1,4]diazepin-3-yl)benzyl)piperidin-4-yl)-3-(p-tolyl)urea]	22
12	0.34	Cc1ccc(S(=O)(=O)NC2(c3ccc(-c4nnc5n4-c4cccnc4Nc4ccccc4-5)cc3)CCC2)cc1 [Example 198, N-(1-(4-(9H-benzo[f]pyrido[2,3-b][1,2,4]triazolo[4,3-d][1,4]diazepin-3-yl)phenyl)cyclobutyl)-4-methylbenzenesulfonamide]	17
16	0.31	O=C(NCc1ccc(-c2nnc3n2-c2cccnc2Nc2ccccc2-3)cc1)Nc1ccccc1F [Example 121, 1-(4-(9H-benzo[f]pyrido[2,3-b][1,2,4]triazolo[4,3-d][1,4]diazepin-3-yl)benzyl)-3-(2-fluorophenyl)urea]	27
11	0.28	O=S(=O)(NC1(c2ccc(-c3nnc4n3-c3cccnc3Nc3ccccc3-4)cc2)CCC1)c1ccccc1 [Example 195, N-(1-(4-(9H-benzo[f]pyrido[2,3-b][1,2,4]triazolo[4,3-d][1,4]diazepin-3-yl)phenyl)cyclobutyl)benzenesulfonamide]	16
16	0.14	COc1cccc(S(=O)(=O)NCc2ccc(-c3nnc4n3-c3cccnc3Nc3ccccc3-4)cc2)c1 [Example 114, N-(4-(9H-benzo[f]pyrido[2,3-b][1,2,4]triazolo[4,3-d][1,4]diazepin-3-yl)benzyl)-3-methoxybenzenesulfonamide]	25
16	0.11	Cc1cccc(S(=O)(=O)NCc2ccc(-c3nnc4n3-c3cccnc3Nc3ccccc3-4)cc2)c1 [Example 115, N-(4-(9H-benzo[f]pyrido[2,3-b][1,2,4]triazolo[4,3-d][1,4]diazepin-3-yl)benzyl)-3-methylbenzenesulfonamide]	28
